Data as given in PMC2222622, “The DeoR-type transcriptional regulator SugR acts as a repressor for genes encoding the phosphoenolpyruvate:sugar phosphotransferase system (PTS) in Corynebacterium glutamicum” (BMC Molecular Biology, 2007).

Molecular target: T1, SugR (Corynebacterium glutamicum, UniProt Q8NP85)
T1 construct: gene Cgl1931; expressed in E. coli ER2566 from pTYB1 (pLGI1, 777 bp sugR without stop codon) as C-terminal intein fusion, tag self-cleaved, no extra residues
T1 sequence (Q8NP85 1-259): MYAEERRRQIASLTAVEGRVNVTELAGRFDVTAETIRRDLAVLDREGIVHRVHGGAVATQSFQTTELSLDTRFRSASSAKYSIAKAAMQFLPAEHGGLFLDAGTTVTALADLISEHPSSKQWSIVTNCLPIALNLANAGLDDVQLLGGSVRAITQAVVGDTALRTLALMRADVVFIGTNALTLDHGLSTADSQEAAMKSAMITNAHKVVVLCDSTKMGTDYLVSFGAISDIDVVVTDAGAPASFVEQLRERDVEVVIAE
Experiment: EMSA, release of SugR from Cy3-labelled DNA fragment I2
Assay type: binding
Settings: negative effector; 15 pmol SugR, 0.05 pmol DNA I2 (ptsI-cg2118 intergenic region), 1 mM MgCl2, pH 7.5, RT; threshold of effect, not an IC50

O=P(O)(O)OC[C@H]1OC(O)[C@H](O)[C@@H](O)[C@@H]1O (stereo partly shown) [G-6-P, glucose-6-phosphate]
concentration needed for significant effect: > 10 mM
